Key:
[1] = biological target: T1, Glycogen phosphorylase, muscle form (Oryctolagus cuniculus) (UniProt P00489); assay: Inhibition of rabbit muscle glycogen phosphorylase-a assessed as formation of inorganic phosphate from glucose-1-phosphate at 222 uM by colorimetry
T1 sequence (whole entry): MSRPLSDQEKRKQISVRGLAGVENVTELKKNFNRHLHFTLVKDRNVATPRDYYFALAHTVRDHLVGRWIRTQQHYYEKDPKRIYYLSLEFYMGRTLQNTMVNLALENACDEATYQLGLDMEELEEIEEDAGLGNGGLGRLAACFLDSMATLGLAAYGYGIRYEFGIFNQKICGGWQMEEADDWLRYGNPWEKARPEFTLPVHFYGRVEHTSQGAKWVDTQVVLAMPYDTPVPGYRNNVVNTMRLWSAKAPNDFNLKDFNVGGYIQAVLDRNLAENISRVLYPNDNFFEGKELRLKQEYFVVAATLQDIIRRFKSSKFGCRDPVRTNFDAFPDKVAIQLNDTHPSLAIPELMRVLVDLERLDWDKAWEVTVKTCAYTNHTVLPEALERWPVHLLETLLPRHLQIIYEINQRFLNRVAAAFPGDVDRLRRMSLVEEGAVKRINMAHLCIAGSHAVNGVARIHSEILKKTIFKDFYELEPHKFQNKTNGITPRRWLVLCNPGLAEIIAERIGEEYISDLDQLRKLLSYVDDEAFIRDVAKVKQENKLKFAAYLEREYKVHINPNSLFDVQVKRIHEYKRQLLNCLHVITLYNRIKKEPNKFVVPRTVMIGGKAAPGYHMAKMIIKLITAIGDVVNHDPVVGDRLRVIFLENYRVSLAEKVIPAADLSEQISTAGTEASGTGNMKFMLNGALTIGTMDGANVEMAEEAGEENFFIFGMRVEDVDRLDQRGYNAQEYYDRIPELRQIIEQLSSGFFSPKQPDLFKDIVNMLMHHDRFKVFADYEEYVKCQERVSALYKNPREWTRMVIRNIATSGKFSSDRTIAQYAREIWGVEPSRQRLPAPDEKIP

[2] = biological target: T2, Glycogen phosphorylase, muscle form (Oryctolagus cuniculus, UniProt P00489); assay: Inhibition of rabbit muscle glycogen phosphorylase-a assessed as formation of inorganic phosphate from glucose-1-phosphate by colorimetry
T2 sequence (P00489 whole entry): T1 sequence (whole entry)

[3] = biological target: T1, Glycogen phosphorylase, muscle form (Oryctolagus cuniculus); assay: Inhibition of rabbit muscle glycogen phosphorylase-a assessed as formation of inorganic phosphate from glucose-1-phosphate at 11.1 uM by colorimetry
[4] = biological target: T1, Glycogen phosphorylase, muscle form (Oryctolagus cuniculus); assay: Inhibition of rabbit muscle glycogen phosphorylase-a assessed as formation of inorganic phosphate from glucose-1-phosphate at 444 uM by colorimetry
[5] = biological target: T1, Glycogen phosphorylase, muscle form (Oryctolagus cuniculus); assay: Inhibition of rabbit muscle glycogen phosphorylase-a assessed as formation of inorganic phosphate from glucose-1-phosphate at 44 uM by colorimetry
[6] = biological target: T1, Glycogen phosphorylase, muscle form (Oryctolagus cuniculus); assay: Inhibition of rabbit muscle glycogen phosphorylase-a assessed as formation of inorganic phosphate from glucose-1-phosphate at 4.4 mM by colorimetry
[7] = biological target: T1, Glycogen phosphorylase, muscle form (Oryctolagus cuniculus); assay: Inhibition of rabbit muscle glycogen phosphorylase-a assessed as formation of inorganic phosphate from glucose-1-phosphate at 20 uM by colorimetry
[8] = biological target: T1, Glycogen phosphorylase, muscle form (Oryctolagus cuniculus); assay: Inhibition of rabbit muscle glycogen phosphorylase-a assessed as formation of inorganic phosphate from glucose-1-phosphate at 440 uM by colorimetry
[9] = biological target: T1, Glycogen phosphorylase, muscle form (Oryctolagus cuniculus); assay: Inhibition of rabbit muscle glycogen phosphorylase-a assessed as formation of inorganic phosphate from glucose-1-phosphate at 90 uM by colorimetry

CCOC(=O)Cn1cccc(NCc2ccc(Cl)c(Cl)c2)c1=O
inhibition [1]: 43%

CCCNC(=O)Cn1cccc(NCc2ccc(Cl)c(Cl)c2)c1=O
inhibition [1]: 67%

O=C(Cn1cccc(NCc2ccc(Cl)c(Cl)c2)c1=O)NCc1ccc(Cl)c(Cl)c1
IC50 ([2]; read-out: IC50): 1.92 µM

O=C(Cn1cccc(NCc2ccc([N+](=O)[O-])cc2)c1=O)NCc1ccc(Cl)c(Cl)c1
IC50 ([2]; read-out: IC50(app)): 2.5 µM
inhibition [3]: 100%

CCOC(=O)Cn1cccc(NCc2ccc(Cl)cc2)c1=O
inhibition [1]: 75%

O=C(Cn1cccc(NCc2ccc(Cl)c(Cl)c2)c1=O)Nc1ccc(Cl)c(Cl)c1
IC50 ([2]; read-out: IC50(app)): 18.5 µM
inhibition [1]: 98%

O=C(Cn1cccc(NCc2ccccc2)c1=O)NCCc1ccc(Cl)c(Cl)c1
inhibition [4]: 80%

O=C(Cn1cccc(NCc2ccc(Cl)c(Cl)c2)c1=O)NCCc1ccc(Cl)c(Cl)c1
IC50 ([2]; read-out: IC50(app)): 22.5 µM
inhibition [3]: 98%

O=C(Cn1cccc(NCc2ccccn2)c1=O)NCc1ccc(Cl)c(Cl)c1
IC50 [2]: Not Active

O=C(Cn1cccc(NCCCc2ccccc2)c1=O)NCCc1ccc(Cl)c(Cl)c1
IC50 ([2]; read-out: IC50): 68 µM

O=C(Cn1cccc(NCc2ccccc2Cl)c1=O)Nc1ccc(Cl)c(Cl)c1
IC50 ([2]; read-out: IC50): 57 µM

O=C(Cn1cccc(NCc2ccc(Cl)c(Cl)c2)c1=O)NCCc1ccc(Cl)cc1Cl
inhibition [5]: 22%

O=C(Cn1cccc(NCCCc2ccccc2)c1=O)NCc1ccc(Cl)c(Cl)c1
inhibition [6]: 33%

O=C(Cn1cccc(NCc2ccc(Cl)cc2)c1=O)Nc1ccc(Cl)c(Cl)c1
IC50 [2]: Not Active

O=C(Cn1cccc(NCc2ccccc2)c1=O)Nc1ccccc1
IC50 [2]: Not Active

O=C(Cn1cccc(NCc2cccs2)c1=O)NCc1ccc(Cl)c(Cl)c1
IC50 ([2]; read-out: IC50(app)): 19.5 µM
inhibition [1]: 73%

CCOC(=O)Cn1cccc(NCc2cccn2S(=O)(=O)c2ccc(C)cc2)c1=O
inhibition [1]: 75%

O=C(Cn1cccc(NCc2cccc(Cl)c2)c1=O)Nc1ccc(Cl)c(Cl)c1
inhibition [7]: 33%

O=C(Cn1cccc(NCc2ccc(Cl)c(Cl)c2)c1=O)NCc1ccccc1
IC50 ([2]; read-out: IC50): 10.2 µM

O=C(Cn1cccc(NCc2ccc(Cl)c(Cl)c2)c1=O)Nc1ccccc1
inhibition [8]: 19%

O=C(Cn1cccc(NCc2ccccc2)c1=O)Nc1ccc(Cl)c(Cl)c1
inhibition [9]: 41%

Cc1ccc(S(=O)(=O)n2cccc2CNc2cccn(CC(=O)NCc3ccc(Cl)c(Cl)c3)c2=O)cc1
IC50 ([2]; read-out: IC50): 3.4 µM

O=C(Cn1cccc(NC(=O)c2ccccc2)c1=O)Nc1ccc(Cl)c(Cl)c1
IC50 ([2]; read-out: IC50(app)): 13 µM
inhibition [1]: 100%

O=C(Cn1cccc(NCc2ccc(Cl)c(Cl)c2)c1=O)NCCc1ccccc1
IC50 ([2]; read-out: IC50): 31.3 µM

O=C(Cn1cccc(NCc2ccccc2)c1=O)NCCc1ccc(Cl)cc1Cl
inhibition [5]: 93%

Cc1ccc(S(=O)(=O)Nc2cccn(CC(=O)NCc3ccc(Cl)c(Cl)c3)c2=O)cc1
inhibition [1]: 37%

O=C(Cn1cccc(NCc2cccc(Cl)c2)c1=O)NCc1ccc(Cl)c(Cl)c1
IC50 ([2]; read-out: IC50): 5.66 µM

O=C(Cn1cccc(NCc2ccc(Cl)cc2)c1=O)NCc1ccc(Cl)c(Cl)c1
IC50 ([2]; read-out: IC50): 2.1 µM

O=C(Cn1cccc(NCc2ccccc2Cl)c1=O)NCc1ccc(Cl)c(Cl)c1
IC50 ([2]; read-out: IC50): 18.5 µM
inhibition [1]: 77%
